The source of these data is patent US20090197878A1, “SUBSTITUTED BENZO[d][1,3]OXAZIN-2(4H)-ONES AND RELATED DERIVATIVES AND THEIR USES FOR MODULATING THE PROGESTERONE RECEPTOR” (Wyeth, priority 2008, published 2009).

In data set [1] the test system is alkaline phosphatase activity in T47D cells. As to the kind of experiment: Effects of progestins and antiprogestins on alkaline phosphatase activity in T47D cells. It counts as cell-based. Particulars: Homo sapiens; for inhibition at 3 µM: at 3000 nM; for inhibition at 3 µM / inhibition at 0.3 µM: in the presence of 1 nM progesterone; for inhibition at 0.3 µM: at 300 nM; for IC50: antagonist mode in the presence of 1 nM progesterone, 24 hours. On the procedure: The purpose of this example is to identify progestins or antiprogestins by determining a compound's effect on alkaline phosphatase activity in T47D cells.
A. Reagents: • Culture medium: Dulbecco's Modified Eagle Medium (DMEM):F12 (1:1) (GIBCO, BRL) supplemented with 5% (v/v) charcoal stripped fetal bovine serum (not heat-inactivated), 100 U/mL penicillin, 100 μg/mL streptomycin, and 2 mM of the GlutaMax® reagent (GIBCO, BRL). • Alkaline phosphatase assay buffer: • I. 0.1M Tris-HCl, pH 9.8, containing 0.2% Triton® X-100 reagent • II. 0.1M Tris-HCl, pH 9.8, containing 4 mM p-nitrophenyl phosphate (Sigma).
Frozen T47D cells are thawed in a 37° C. water bath and diluted to 280,000 cells/mL in culture medium. To each well in a 96-well plate (Falcon, Becton Dickinson Labware), was added 180 μL of diluted cell suspension. Twenty μL of reference or test compounds diluted in the culture medium is then added to each well. When testing for progestin antagonist activity, reference antiprogestins or test compounds are added in the presence of 1 nM progesterone. The cells are incubated at 37° C. in a 5% CO2/humidified atmosphere for 24 hours. For high throughput screening, one concentration of each compound will be tested at 0.3 μg/mL. Based on an average molecular weight of 300 g/mol for the compounds in the library, the concentration is approximately 1 μM. Compounds active in this assay can be tested in dose response assays to determine EC50 and IC50.
C. Alkaline Phosphatase Enzyme Assay: • At the end of treatment, the medium is removed from the plate. Fifty μL of assay buffer I is added to each well. The plates are shaken in a titer plate shaker for 15 minutes. Then 150 μL of assay buffer II is added to each well. Optical density measurements are taken at 5 minute intervals for 30 minutes at a test wavelength of 405 nm.
D. Analysis of Results: Analysis of Dose-Response Data • For reference and test compounds, a dose response curve is generated for dose (X-axis) vs. the rate of enzyme reaction (slope) (Y-axis). Square root-transformed data are used for analysis of variance and nonlinear dose response curve fitting for both agonist and antagonist modes. Huber weighting is used to down-weight the effects of outliers. EC50 or IC50 values are calculated from the retransformed values. JMP® software (SAS Institute, Inc.) is used for both one-way analysis of variance and non-linear dose response analysis in both single dose and dose response studies.
E. Reference Compounds • Progesterone and trimegestone are reference progestins and RU486 is the reference antiprogestin. All reference compounds are run in full dose response curves and the EC50 and IC50 values are calculated.

Consider `COC(=O)/C=C(\c1ccccc1)c1ccc2c(c1)C(C)(C)OC(=O)N2` [Example 11, Methyl(2E)-3-(4,4-dimethyl-2-oxo-1,4-dihydro-2H-3,1-benzoxazin-6-yl)-3-phenylacrylate], for which the melting point fell in the range of 181 to 182 °C.
As to `CCC/C(=C\C=O)c1ccc2c(c1)C(CC)(CC)OC(=O)N2` [Example 26, (2E)-3-(4,4-Diethyl-2-oxo-1,4-dihydro-2H-3,1-benzoxazin-6-yl)hex-2-enal], the melting point lay in the range of 173 to 179 °C. Further, the inhibition at 3 µM in data set [1] stood at 100%.
As for `CC1(C)OC(=O)Nc2ccc(/C=C/C#N)cc21` [Example 8, (2E)-3-(4,4-Dimethyl-2-oxo-1,4-dihydro-2H-3,1-benzoxazin-6-yl)acrylonitrile], the melting point is 238 to 240 °C (dec.).
On the same count and under the same terms, the result for `CC1(C)OC(=O)Nc2ccc(C3=CC(=O)OCC3)cc21` [Example 10, 4,4-Dimethyl-6-(6-oxo-3,6-dihydro-2H-pyran-4-yl)-1,4-dihydro-2H-3,1-benzoxazin-2-one] reads 235 to 236 °C (dec.); that for `COC(=O)/C=C/c1ccc2c(c1)C(C)(C)CC(=O)N2` [Example 1, Methyl(2E)-3-(4,4-dimethyl-2-oxo-1,2,3,4-tetrahydroquinolin-6-yl)acrylate], 174 to 175 °C.
For the compound `C/C(=C\C#N)c1ccc2c(c1)C1(CCCCC1)OC(=O)N2` [Example 17, (2E)-3-(2-oxo-1,2-dihydrospiro[3,1-benzoxazine-4,1′-cyclohexan]-6-yl)but-2-enenitrile], the melting point is 208 to 210 °C (dec.). The inhibition at 0.3 µM in data set [1] was found to be 60%.
Taken in the same sequence, the figures for `CC(C)/C(=C\C#N)c1ccc2c(c1)C1(CCCCC1)OC(=O)N2` [Example 21, (2E)-4-Methyl-3-(2-oxo-1,2-dihydrospiro[3,1-benzoxazine-4,1′-cyclohexan]-6-yl)pent-2-enenitrile] were 201 to 203 °C (dec.) and 60%.
`CC1(C)OC(=O)Nc2ccc(/C(=C/C(N)=O)c3ccccc3)cc21` [Example 7, (2E)-3-(4,4-Dimethyl-2-oxo-1,4-dihydro-2H-3,1-benzoxazin-6-yl)-3-phenylacrylamide] had a melting point of 219 to 220 °C. In data set [1], the IC50 was 50 µM.
As to `CC/C(=C\C(N)=O)c1ccc2c(c1)C1(CCCCC1)OC(=O)N2` [Example 18, (2E)-3-(2-Oxo-1,2-dihydrospiro[3,1-benzoxazine-4,1′-cyclohexan]-6-yl)pent-2-enamide], the melting point is 235 to 238 °C (dec.). In data set [1], the inhibition at 3 µM is 22%.
Taken in the same sequence, the figures for `CCC/C(=C\C(N)=O)c1ccc2c(c1)C(CC)(CC)OC(=O)N2` [Example 24, (2E)-3-(4,4-Diethyl-2-oxo-1,4-dihydro-2H-3,1-benzoxazin-6-yl)hex-2-enamide] were 212 to 213 °C and 65%.
For `COC(=O)/C=C/c1ccc2c(c1)C(C)(C)OC(=O)N2` [Example 2, Methyl(2E)-3-(4,4-dimethyl-2-oxo-1,4-dihydro-2H-3,1-benzoxazin-6-yl)acrylate], the melting point is 204 to 205 °C.
On to `CC1(C)OC(=O)Nc2ccc(/C=C/c3ccno3)cc21` [Example 3, 6-[(E)-2-Isoxazol-5-ylvinyl]-4,4-di-methyl-1,4-dihydro-2H-3,1-benzoxazin-2-one], for which the melting point fell in the range of 190 to 193 °C.
Take `C/C(=C\C(N)=O)c1ccc2c(c1)C1(CCCCC1)OC(=O)N2` [Example 16, (2E)-3-(2-Oxo-1,2-dihydrospiro[3,1-benzoxazine-4,1′-cyclohexan]-6-yl)but-2-enamide]: the melting point is 204 to 207 °C (dec.). In data set [1], the inhibition at 3 µM was 0%.
Regarding `CC1(C)OC(=O)Nc2ccc(/C=C/C(N)=O)cc21` [Example 4, (2E)-3-(4,4-Dimethyl-2-oxo-1,4-dihydro-2H-3,1-benzoxazin-6-yl)acrylamide], the melting point was 196 to 198 °C. Moreover, the half-inhibitory concentration (IC50) in data set [1] was found to be 50 µM.

One may read the melting point as the temperature, or range, at which the solid turns liquid. The term inhibition denotes the drop in the measured response relative to a control, in per cent. What is called IC50 is the concentration at which inhibition is half-maximal.
